In one data set the test system is OMP decarboxylase. The settings on record: for PYR concentration: 1 μM; for OMP concentration / Orotate concentration / UMP concentration: PYR 1 μM.
A further data set has as its system advanced lung cancer. The settings on record: weekly rapid iv injection, previously treated patients with advanced lung cancer; cited from earlier work.
The next data set can be described thus: in vitro. Particulars: monkey.
Another data set has as its system SARS-CoV-2. The data set can be described thus: microbe, parasite or virus in culture. Format: cell-based.
For data set [1] the following is noted: patient with papillary carcinoma of the thyroid; cited from earlier work.
The conditions of data set [2]: daily times 5 schedule; cited from earlier work.
The next data set deals with HRV1A strain 2060. The data set can be described thus: Rhinovirus antiviral assay, inhibition of virus-induced cell killing (XTT) in H1-HeLa cells. Particulars: Enterovirus. Format: cell-based. Background: Tetrazolium dyes change colour on reduction, which living cells bring about.
[3] abbreviates: remdesivir dose response, brequinar 0.000 μM.
Setting [4] is: remdesivir dose response, brequinar 0.078 μM.
Setting [5] is: remdesivir dose response, brequinar 0.156 μM.
[6] abbreviates: remdesivir dose response, brequinar 0.313 μM.
[7] abbreviates: remdesivir dose response, brequinar 1.250 μM.

Structures are written as SMILES. “And” between values parts separate entries of the source, which are not always exact repeats. Equal entries are not always repeated. Where two headings read alike, the source gives them in different places.

Take `NC(=O)c1[nH]nc([C@@H]2O[C@H](CO)[C@@H](O)[C@H]2O)c1O` [PYR, 5-[(2S,3R,4S,5R)-3,4-dihydroxy-5-(hydroxymethyl)oxolan-2-yl]-4-hydroxy-1H-pyrazole-3-carboxamide]: the PYR concentration in the data set on OMP decarboxylase (1 h) and in the data set on OMP decarboxylase (4 h) was 0 ng/mL throughout. The OMP concentration stood at 0 ng/mL in the data set with OMP decarboxylase (Cells, 1 hr); 10 ng/mL in the data set on OMP decarboxylase (Cells, 4 hr); 11 ng/mL in the data set on OMP decarboxylase (Cells, 24 hr); 43 ng/mL in the data set with OMP decarboxylase (Supernatant, 24 hr). For the same compound, the Orotate concentration in the data set on OMP decarboxylase (Cells, 1 hr) amounted to 339 ng/mL; in the data set with OMP decarboxylase (Cells, 4 hr), 1170 ng/mL; in the data set on OMP decarboxylase (Cells, 24 hr), 1220 ng/mL; with OMP decarboxylase (Supernatant, 24 hr), 10005 ng/mL. In addition, the UMP concentration was found to be 552 ng/mL in the data set on OMP decarboxylase (Cells, 1 hr); 408 ng/mL in the data set on OMP decarboxylase (Cells, 4 hr); 326 ng/mL with OMP decarboxylase (Cells, 24 hr); 69 ng/mL in the data set with OMP decarboxylase (Supernatant, 24 hr). Moreover, the therapeutic value entry in the data set with advanced lung cancer is “little therapeutic value as a single agent”.
In the data set “in vitro” (CC50), `NC(=O)c1ncn([C@@H]2O[C@H](CO)[C@@H](O)[C@H]2O)n1` [ribavirin] displayed a CC50 of over 50000 nM. Besides, in the data set on SARS-CoV-2 (Severe acute respiratory syndrome coronavirus 2, Vero C1008, read-out: IC50: Concentration inhibiting 50% of the virus-induced CPE compared to the no infection control), the IC50 was over 50000 nM. The EC90 – broadly, the concentration needed for an effect of 90% – in the data set with SARS-CoV-2 (Severe acute respiratory syndrome coronavirus 2, Vero C1008; Vero E6, MOI of 0.05) was over 50000 nM.
Turning to `Cc1c(-c2ccc(-c3ccccc3F)cc2)nc2ccc(F)cc2c1C(=O)O` [Brequinar sodium], the tumor response entry in data set [1] is recorded as “One mixed response”. For the same compound, in data set [2], the maximum tolerated dose is recorded as 300 mg/m^2 and the “recommended phase II dose” value is 250 mg/m^2.
For `CCOC(=O)/C=C/[C@H](C[C@@H]1CCNC1=O)NC(=O)[C@@H](CC(=O)[C@@H](NC(=O)c1cc(C)on1)C(C)C)Cc1ccc(F)cc1` [Rupintrivir], the EC50 with HRV1A strain 2060 worked out at 10.7 nM.
Turning to `CCC(CC)COC(=O)[C@H](C)N[P@](=O)(OC[C@H]1O[C@@](C#N)(c2ccc3c(N)ncnn23)[C@H](O)[C@@H]1O)Oc1ccccc1` [remdesivir], the CC50 in “in vitro” (CC50, Vero E6) was over 50000 nM; in “in vitro” (CC50 of remdesivir), over 50000 nM; in “in vitro” (CC50 of remdesivir, brequinar 0.000 μM), over 25000 nM; in the data set “in vitro” (CC50 of remdesivir, brequinar 0.078 μM) it was over 50000 nM; in “in vitro” (CC50 of remdesivir, brequinar 0.156 μM), over 50000 nM; in the data set “in vitro” (CC50 of remdesivir, brequinar 0.313 μM), over 50000 nM. Also, the CC50 in the data set “in vitro” (CC50 of remdesivir, brequinar 1.250 μM) is over 50000 nM. The “E(Max)” value with SARS-CoV-2 amounted to 100. The “E(Max) of remdesivir” value in the data set on SARS-CoV-2 was 95.33 and 96.37 and 95.10; in the data set on SARS-CoV-2 (brequinar 0.000 μM) it was 92.02; with SARS-CoV-2 (brequinar 0.078 μM), 97.37; with SARS-CoV-2 (brequinar 0.156 μM) it was 122.66; with SARS-CoV-2 (brequinar 0.313 μM), 97.35; in the data set with SARS-CoV-2 (brequinar 1.250 μM), 100.22. Moreover, the “Max Data” value with SARS-CoV-2 was 104.7% and 106.8% and 101.9%; in the data set with SARS-CoV-2 (setting [3]), 97.1%; in the data set on SARS-CoV-2 (setting [4]) it was 94.4%; in the data set with SARS-CoV-2 (setting [5]) it was 102.6%; in the data set with SARS-CoV-2 (setting [6]), 103.8%; in the data set with SARS-CoV-2 (setting [7]), 105.1%. The “Min Data” value with SARS-CoV-2 is 75.9% and 78.9% and 69.5%; in the data set on SARS-CoV-2 (setting [3]) it was −11%; in the data set on SARS-CoV-2 (setting [4]), −1.9%; in the data set with SARS-CoV-2 (setting [5]), 22.1%; with SARS-CoV-2 (setting [6]), 55.4%; in the data set on SARS-CoV-2 (setting [7]) it was 80.1%. For the same compound, the “increase in activity of remdesivir” value in the data set with SARS-CoV-2 is given as over 6.8 fold. Also, the EC90 in the data set on SARS-CoV-2 (Severe acute respiratory syndrome coronavirus 2, Vero C1008) stood at 1400 nM. Besides, the EC50 in the data set with SARS-CoV-2 (Severe acute respiratory syndrome coronavirus 2, Vero C1008, brequinar 0.000 μM; read-out: EC50 of remdesivir) was 801 nM; in the data set on SARS-CoV-2 (Severe acute respiratory syndrome coronavirus 2, Vero C1008, brequinar 0.078 μM; read-out: EC50 of remdesivir), 277 nM; in the data set on SARS-CoV-2 (Severe acute respiratory syndrome coronavirus 2, Vero C1008, brequinar 0.156 μM; read-out: EC50 of remdesivir), 186 nM; with SARS-CoV-2 (Severe acute respiratory syndrome coronavirus 2, Vero C1008, brequinar 0.313 μM; extrapolated value; read-out: EC50 of remdesivir), 3 nM; in the data set with SARS-CoV-2 (Severe acute respiratory syndrome coronavirus 2, Vero C1008, brequinar 1.250 μM; read-out: EC50 of remdesivir), under 19.5 nM; with SARS-CoV-2 (Severe acute respiratory syndrome coronavirus 2, Vero C1008, read-out: EC50 of remdesivir), under 19.5 nM. In addition, the EC50 in the data set on SARS-CoV-2 (Severe acute respiratory syndrome coronavirus 2, Vero C1008; read-out: EC50: Concentration inhibiting 50% of the maximum CPE-protection effect of the compound (Emax)) stood at 820 nM. The IC50 in the data set with SARS-CoV-2 (Severe acute respiratory syndrome coronavirus 2, Vero C1008, brequinar 0.000 μM; read-out: IC50 of remdesivir) is 823 nM; in the data set with SARS-CoV-2 (Severe acute respiratory syndrome coronavirus 2, Vero C1008, brequinar 0.078 μM; read-out: IC50 of remdesivir) it was 292 nM; in the data set with SARS-CoV-2 (Severe acute respiratory syndrome coronavirus 2, Vero C1008, brequinar 0.156 μM; read-out: IC50 of remdesivir), 102 nM; with SARS-CoV-2 (Severe acute respiratory syndrome coronavirus 2, Vero C1008, brequinar 0.313 μM; extrapolated value; read-out: IC50 of remdesivir), 3 nM; with SARS-CoV-2 (Severe acute respiratory syndrome coronavirus 2, Vero C1008, brequinar 1.250 μM; read-out: IC50 of remdesivir), under 19.5 nM; in the data set on SARS-CoV-2 (Severe acute respiratory syndrome coronavirus 2, Vero C1008, read-out: IC50 of remdesivir), under 19.5 nM. Also, the IC50 worked out at 100 nM in the data set on SARS-CoV-2 (Severe acute respiratory syndrome coronavirus 2, Vero C1008, read-out: remdesivir concentration to suppress viral replication to 50%) and 820 nM in the data set on SARS-CoV-2 (Severe acute respiratory syndrome coronavirus 2, Vero C1008; read-out: IC50: Concentration inhibiting 50% of the virus-induced CPE compared to the no infection control). Besides, in the data set with SARS-CoV-2 (Vero E6), the “SI50: Selective Index 50 = CC50/IC50” value is recorded as over 61. The “cytotoxicity of the co-treatment” value in the data set with Vero E6 cells (remdesivir co-treatment with brequinar) is “No enhanced cytotoxicity was detected”.
As for `CC(C)C[C@H](NC(=O)OCc1ccccc1)C(=O)N[C@@H](CC1CCNC1=O)C(O)S(=O)(=O)[O-].[Na+]` (stereo partly drawn) [GC-376], in the data set with SARS-CoV-2, the “E(Max)” value is 100 and the EC90 is 5730 nM. In addition, the EC50 with SARS-CoV-2 (read-out: EC50: Concentration inhibiting 50% of the maximum CPE-protection effect of the compound (Emax)) amounted to 2040 nM. Moreover, the IC50 in the data set with SARS-CoV-2 (read-out: IC50: Concentration inhibiting 50% of the virus-induced CPE compared to the no infection control) amounted to 2040 nM. Further, the CC50 with Vero E6 cells is over 50000 nM.

The record behind these values is patent US20210290651A1, “METHODS OF TREATING VIRAL INFECTIONS USING INHIBITORS OF NUCLEOTIDE SYNTHESIS PATHWAYS” (priority 2020, published 2021).
